Reference: ChEMBL document CHEMBL1201862, “PubChem BioAssay data set” (2004)
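Where inhibition never reached the appropriate level, the endpoint shown equals the highest concentration tested. Otherwise, values were interpolated linearly from a five-concentration, 48-hour dose response in 96-well plates. GI50 is the concentration that inhibits growth by half.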 Activity calls are given as the source filed them. Cut-off read from the data, not from the text of the source: active = GI50 up to about 1.1 µM and inactive = higher.

What was measured:
Test in all cases: DTP human tumour cell line panel, 48 h
[1] = test system: HOP-92
[2] = test system: NCI-H23
[3] = test system: HOP-18
[4] = test system: SF-295
[5] = test system: NCI-H226
[6] = test system: EKVX
[7] = test system: RXF 393
[8] = test system: SR
[9] = test system: HOP-62
[10] = test system: HT-29
[11] = test system: KM-20L2
[12] = test system: RPMI-8226
[13] = test system: OVCAR-5
[14] = test system: Malme-3M
[15] = test system: HL-60
[16] = test system: IGROV-1
[17] = test system: SNB-78
[18] = test system: LOX IMVI
[19] = test system: UO-31
[20] = test system: CCRF-CEM
[21] = test system: NCI-H460
[22] = test system: MOLT-4
[23] = test system: TK-10
[24] = test system: A549
[25] = test system: XF498
[26] = test system: LXFL 529
[27] = test system: SNB-19
[28] = test system: OVCAR-8
[29] = test system: 786-0
[30] = test system: SK-MEL-5
[31] = test system: CAKI-1
[32] = test system: SK-MEL-28
[33] = test system: DMS-114
[34] = test system: A498
[35] = test system: SW-620
[36] = test system: HCC 2998
[37] = test system: DMS-273
[38] = test system: SF-539
[39] = test system: KM12
[40] = test system: SK-MEL-2
[41] = test system: M14
[42] = test system: SN12C
[43] = test system: M19-MEL
[44] = test system: HCT-15
[45] = test system: HCT-116
[46] = test system: OVCAR-3
[47] = test system: ACHN
[48] = test system: SNB-75
[49] = test system: OVCAR-4
[50] = test system: DLD-1
[51] = test system: UACC-62
[52] = test system: UACC-257
[53] = test system: K562
[54] = test system: SF-268

Measured: GI50

CC(=O)CCn1[nH]c(=O)c(Cl)c(Cl)c1=O
inactive: [1] > 100 µM | [2] > 100 µM | [3] > 100 µM | [4] > 100 µM | [5] > 100 µM | [6] > 100 µM | [7] > 100 µM | [8] > 100 µM | [9] > 100 µM | [10] > 100 µM | [11] > 100 µM | [12] > 100 µM | [13] > 100 µM | [14] > 100 µM | [15] > 100 µM | [16] > 100 µM | [17] > 100 µM | [18] > 100 µM | [19] > 100 µM | [20] > 100 µM | [21] > 100 µM | [22] > 100 µM | [23] > 100 µM | [24] > 100 µM | [25] > 100 µM | [26] > 100 µM | [27] 15.3 µM | [28] > 100 µM | [29] > 100 µM | [30] > 100 µM | [31] 14.3 µM | [32] > 100 µM | [33] > 100 µM | [34] > 100 µM | [35] 15 µM | [36] > 100 µM | [37] > 100 µM | [38] > 100 µM | [39] > 100 µM | [40] > 100 µM | [41] > 100 µM | [42] > 100 µM | [43] > 100 µM | [45] > 100 µM | [46] > 100 µM | [47] > 100 µM | [48] > 100 µM | [49] > 100 µM | [50] > 100 µM | [51] > 100 µM | [52] > 100 µM | [53] > 100 µM | [54] > 100 µM
> 100 µM: [44]
